From patent US12303509B2, “Compounds for the treatment of BRAF-associated diseases and disorders” (Pfizer Inc., priority 2020, dated 2025)
Counter-ions that a name gives are not always drawn.

Assays:
BCRP = BCRP (Homo sapiens (Human), UniProt Q9UNQ0); experiment: BCRP MDCKII permeability assay: efflux ratio; type: in vitro ADME; settings: dog
[1] = MDR1 LLC-PK1 and BCRP MDCKII permeability assay: permeability coefficient (Papp); type: in vitro ADME
Source text: (§1) Final organic concentration in the assay was 1%.

P-gp (MDR1) = P-gp (MDR1) (Homo sapiens (Human), UniProt P08183); experiment: MDR1 LLC-PK1 permeability assay: efflux ratio; type: in vitro ADME; settings: pig
P-gp (MDR1), sequence (P08183 whole entry, species assumed): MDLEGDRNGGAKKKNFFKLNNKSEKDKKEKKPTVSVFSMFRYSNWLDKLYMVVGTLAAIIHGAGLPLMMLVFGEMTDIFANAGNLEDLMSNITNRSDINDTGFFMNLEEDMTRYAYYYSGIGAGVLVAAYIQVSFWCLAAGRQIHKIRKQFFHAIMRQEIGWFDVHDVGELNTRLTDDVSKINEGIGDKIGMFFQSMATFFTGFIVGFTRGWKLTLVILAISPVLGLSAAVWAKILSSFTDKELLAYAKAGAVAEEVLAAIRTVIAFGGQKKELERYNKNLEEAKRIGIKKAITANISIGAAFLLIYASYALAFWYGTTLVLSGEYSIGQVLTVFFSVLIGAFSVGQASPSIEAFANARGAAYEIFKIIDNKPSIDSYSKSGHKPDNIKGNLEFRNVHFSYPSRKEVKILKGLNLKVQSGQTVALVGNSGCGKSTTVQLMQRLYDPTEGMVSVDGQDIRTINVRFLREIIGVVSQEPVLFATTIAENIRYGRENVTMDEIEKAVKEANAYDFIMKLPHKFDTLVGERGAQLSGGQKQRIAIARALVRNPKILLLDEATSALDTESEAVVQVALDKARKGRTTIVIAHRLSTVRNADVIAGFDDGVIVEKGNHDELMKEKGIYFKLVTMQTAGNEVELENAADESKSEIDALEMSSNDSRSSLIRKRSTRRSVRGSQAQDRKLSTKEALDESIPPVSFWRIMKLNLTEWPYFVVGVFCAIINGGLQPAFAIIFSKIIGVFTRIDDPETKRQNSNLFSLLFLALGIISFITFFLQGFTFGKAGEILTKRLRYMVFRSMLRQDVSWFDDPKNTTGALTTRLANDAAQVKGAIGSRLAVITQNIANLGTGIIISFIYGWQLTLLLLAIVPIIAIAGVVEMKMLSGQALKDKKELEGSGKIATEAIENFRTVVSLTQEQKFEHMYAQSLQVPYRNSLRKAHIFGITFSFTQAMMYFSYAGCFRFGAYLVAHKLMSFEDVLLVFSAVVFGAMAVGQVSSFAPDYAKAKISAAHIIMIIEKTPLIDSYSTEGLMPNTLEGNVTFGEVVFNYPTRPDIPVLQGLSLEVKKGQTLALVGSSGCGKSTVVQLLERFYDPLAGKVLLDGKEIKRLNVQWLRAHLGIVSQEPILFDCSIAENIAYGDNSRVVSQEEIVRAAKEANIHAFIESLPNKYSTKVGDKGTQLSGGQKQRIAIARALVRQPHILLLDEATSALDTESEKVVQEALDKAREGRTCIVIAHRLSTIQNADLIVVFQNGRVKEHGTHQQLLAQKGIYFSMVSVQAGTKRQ
Source text: as §1

A375 cells = experiment: Cellular phospho-ERK inhibition assay in A375 cells; type: cell-based; settings: Homo sapiens, A-375, A375 cells (head prints A357), 2 hours treatment, read-out: A357 cell IC50
Method: A375 and H1755 cells were obtained from the American Type Culture Collection (ATCC, Rockville, MD). A375 cells were maintained in DMEM growth medium containing 10% FBS. H1755 cells were maintained in RPMI growth medium containing 10% FBS.
Cells were harvested according to standard protocols, counted and plated onto flat-bottom, 96-well tissue culture plates (Costar #3599) at 2.5×10^4 cells/well for A375 cells and 1.5×10^4 cells/well for H1755 cells in 100 μL/well of growth medium containing 10% FBS. After an overnight incubation at 37° C. with 5% CO2 cells were treated for 2 hours at 37° C., 5% CO2 with compounds prepared as a 9-point, 1:3.33 fold dilution series with final compound concentrations ranging from 66 pM-10 μM and a constant DMSO concentration of 0.25%. Control wells contained either 0.25% DMSO alone (uninhibited control) or 10 μM binimetinib (complete inhibition control). The levels of phosphorylated ERK are determined using an In Cell Western protocol: following compound incubation, growth medium was discarded, and cells were fixed with 0.4% formaldehyde in PBS for 20 minutes at room temperature. Cells were permeabilized with 100% methanol for 10 minutes at room temperature. Plates were washed with PBS containing 0.05% Tween-20 and blocked for 1 hour at room temperature with LI-COR Blocking Buffer (LI-COR Biosciences; Cat #927-40000). Plates were then incubated for 2 hours at room temperature with 50 μL of a 1:400 dilution of anti-phospho-ERK1/2 (Thr202/Tyr204) (Cell Signaling; Cat #9101) and a 1:1000 dilution of anti-GAPDH (Millipore; Cat #MAB374) in LI-COR blocking buffer containing 0.05% Tween-20. Plates were washed with PBS containing […] Tween-20 then incubated at room temperature for 1 hour with 50 μL of a 1:1000 dilution of anti-rabbit AlexaFluor 680 (Life Technologies; Cat #A21109) and a 1:1000 dilution of anti-mouse IRDye 800CW (LI-COR; Cat #926-32210) in LI-COR blocking buffer containing 0.05% Tween-20. Plates were analyzed by reading on an Odyssey CLx infrared scanner. For each well, the phospho-ERK signal was normalized to the GAPDH signal and converted to POC using the following equation:
[formula] • Where: • Xmax Average Uninhibited Controls • Xmin Average Complete Inhibition Controls IC50 values were then calculated using a 4-parameter fit in XLfit software and are provided in Table A1.

[2] = molecular target: full-length FLAG-tagged B-Raf(V600E) (Homo sapiens (Human), UniProt P15056, V600E); experiment: BRAF V600E enzyme assay (TR-FRET competitive displacement); type: binding; settings: averaged IC50; TR-FRET tracer displacement, 60 min
full-length FLAG-tagged B-Raf(V600E), sequence (P15056 whole entry V600E): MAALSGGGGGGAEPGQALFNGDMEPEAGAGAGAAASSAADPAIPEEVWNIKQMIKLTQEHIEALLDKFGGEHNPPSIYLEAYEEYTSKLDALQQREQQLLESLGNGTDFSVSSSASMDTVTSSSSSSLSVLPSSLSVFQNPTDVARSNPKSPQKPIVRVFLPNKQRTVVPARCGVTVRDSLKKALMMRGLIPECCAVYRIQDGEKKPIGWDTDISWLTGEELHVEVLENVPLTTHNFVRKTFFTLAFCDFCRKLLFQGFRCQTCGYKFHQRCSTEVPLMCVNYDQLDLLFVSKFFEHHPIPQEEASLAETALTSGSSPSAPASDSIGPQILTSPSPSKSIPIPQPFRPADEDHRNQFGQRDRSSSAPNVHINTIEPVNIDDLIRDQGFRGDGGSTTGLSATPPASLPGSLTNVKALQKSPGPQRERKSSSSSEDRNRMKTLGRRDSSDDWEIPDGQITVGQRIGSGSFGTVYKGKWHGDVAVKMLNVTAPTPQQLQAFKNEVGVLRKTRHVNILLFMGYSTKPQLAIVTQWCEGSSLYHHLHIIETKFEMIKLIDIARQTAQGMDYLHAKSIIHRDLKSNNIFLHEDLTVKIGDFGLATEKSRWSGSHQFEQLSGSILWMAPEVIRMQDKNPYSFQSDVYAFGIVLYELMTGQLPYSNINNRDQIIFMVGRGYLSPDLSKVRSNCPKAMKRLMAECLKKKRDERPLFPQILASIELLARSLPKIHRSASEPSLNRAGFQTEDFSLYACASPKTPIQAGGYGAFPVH
Method: A competitive displacement assay was configured for B-Raf that monitors the amount of a fluorescently-tagged “tracer” bound to B-Raf via TR-FRET from an anti-tag Eu-labeled antibody also bound to B-Raf. For full-length FLAG-tagged B-Raf(V600E), the assay mixtures consisted of 25 mM K^+HEPES, pH 7.4, 10 mM MgCl2, 0.01% Triton X-100, 1 mM DTT, 2% DMSO (from compound), 50 nM Tracer 1710 (ThermoFisher, PR9176A), 0.5 nM Eu anti-FLAG (M2)-cryptate Ab (Cisbio, 61FG2KLB) and 5 nM full-length, N-terminally FLAG-tagged B-Raf(V600E) (Origene Technologies, TP700031. Compounds were typically diluted in DMSO across an 11-point dosing range created using a 3-fold serial dilution protocol at a top dose of 10 μM. The assay was run in 384-well, polystyrene, low-volume, non-treated, white microtiter plates (Costar 4512) in a final volume of 12 μL. Low control wells included 1 μM of a potent B-Raf inhibitor as a control. The assays were incubated at ambient temperature (typically 22° C.) for 60 min and then read on a PerkinElmer EnVision microplate reader using standard TRF settings (λEx=320 nm, λEm=615 & 665 nm). The ratioed counts (665 nm/615 nm) were converted to percent of control (POC) using the following equation:
[formula] • where: • Xmax Average Uninhibited Controls • Xmin Average Background
A 4-parameter logistic model was the fit to the POC data for each compound. From that fit, the IC50 was estimated and is defined as the concentration of compound at which the best-fit curve crosses 50 POC.

BCRP, sequence (Q9UNQ0 whole entry): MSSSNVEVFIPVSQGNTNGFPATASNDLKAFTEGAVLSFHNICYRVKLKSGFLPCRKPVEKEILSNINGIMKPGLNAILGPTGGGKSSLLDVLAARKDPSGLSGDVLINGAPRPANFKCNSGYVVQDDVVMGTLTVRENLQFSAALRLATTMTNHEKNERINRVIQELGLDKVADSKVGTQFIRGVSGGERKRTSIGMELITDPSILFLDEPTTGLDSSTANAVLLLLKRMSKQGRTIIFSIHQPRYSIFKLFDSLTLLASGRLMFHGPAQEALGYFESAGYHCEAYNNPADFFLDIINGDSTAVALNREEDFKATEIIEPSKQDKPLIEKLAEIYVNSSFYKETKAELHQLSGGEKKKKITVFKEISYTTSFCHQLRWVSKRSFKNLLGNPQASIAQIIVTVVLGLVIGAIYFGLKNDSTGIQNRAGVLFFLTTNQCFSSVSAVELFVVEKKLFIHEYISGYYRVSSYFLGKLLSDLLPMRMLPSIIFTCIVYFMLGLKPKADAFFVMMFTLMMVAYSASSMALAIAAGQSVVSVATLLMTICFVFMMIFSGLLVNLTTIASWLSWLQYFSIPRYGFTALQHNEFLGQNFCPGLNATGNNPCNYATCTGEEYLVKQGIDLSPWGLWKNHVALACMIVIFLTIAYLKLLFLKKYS

| SMILES | efflux ratio at 2 h, 1 µM (BCRP) | Papp at 2 h, 1 µM [1] | efflux ratio at 2 h, 1 µM (P-gp (MDR1)) | IC50 (A375 cells) | IC50 [2] |
| --- | --- | --- | --- | --- | --- |
| Cc1c(Oc2c(F)ccc(NS(=O)(=O)N3CC(F)C3)c2Cl)ccc2ncn(C)c(=O)c12 [Example 116, N-(2-chloro-3-((3,5-dimethyl-4-oxo-3,4-dihydroquinazolin-6-yl)oxy)-4-fluorophenyl)-3-fluoroazetidine-1-sulfonamide] | 2.1 | 34 ×10⁻⁶ cm/s | 2.7 | 15 nM | 4 nM |
| Cc1c(Nc2c(F)ccc(NS(=O)(=O)N3CC4(CC4)C3)c2Cl)ccc2ncn(C)c(=O)c12 [Example 163, N-(2-chloro-3-((3,5-dimethyl-4-oxo-3,4-dihydroquinazolin-6-yl)amino)-4-fluorophenyl)-5-azaspiro[2.3]hexane-5-sulfonamide trifluoroacetate] | 1.4 | 23 ×10⁻⁶ cm/s | 1.9 | 179 nM | 8 nM |
| CCOC1CN(S(=O)(=O)Nc2ccc(F)c(Nc3ccc4ncn(C)c(=O)c4c3C)c2Cl)C1 [Example 160, N-(2-chloro-3-((3,5-dimethyl-4-oxo-3,4-dihydroquinazolin-6-yl)amino)-4-fluorophenyl)-3-ethoxyazetidine-1-sulfonamide] | 1.3 | 38 ×10⁻⁶ cm/s | 1.3 | 87 nM | 33 nM |
| COC1CN(S(=O)(=O)Nc2ccc(F)c(Oc3ccc4ncn(C)c(=O)c4c3F)c2Cl)C1 [Example 123, N-(2-chloro-4-fluoro-3-((5-fluoro-3-methyl-4-oxo-3,4-dihydroquinazolin-6-yl)oxy)phenyl)-3-methoxyazetidine-1-sulfonamide] | 5.4 | 32 ×10⁻⁶ cm/s | 2.5 | 5 nM | 4 nM |
| Cc1c(Oc2c(F)ccc(NS(=O)(=O)N3CC4CC4C3)c2Cl)ccc2ncn(C)c(=O)c12 (stereo not drawn) [Example 91] | 0.8 | 17 ×10⁻⁶ cm/s | 1.5 | 123 nM | 9 nM |
| Cc1c(Nc2c(F)ccc(NS(=O)(=O)N3CC(COC(F)F)C3)c2Cl)ccc2ncn(C)c(=O)c12 [Example 137, N-(2-chloro-3-((3,5-dimethyl-4-oxo-3,4-dihydroquinazolin-6-yl)amino)-4-fluorophenyl)-3-((difluoromethoxy)methyl)azetidine-1-sulfonamide trifluoroacetate] | 1.5 | 36 ×10⁻⁶ cm/s | 2 | 37 nM | 8 nM |
| Cc1c(Nc2c(F)ccc(NS(=O)(=O)N3CCCCC3)c2Cl)ccc2ncn(C)c(=O)c12 [Example 84, N-(2-chloro-3-((3,5-dimethyl-4-oxo-3,4-dihydroquinazolin-6-yl)amino)-4-fluorophenyl)piperidine-1-sulfonamide] | 0.8 | 18 ×10⁻⁶ cm/s | 0.8 | 133 nM | 53 nM |
| COCC1CN(S(=O)(=O)Nc2ccc(F)c(Oc3ccc4ncn(C)c(=O)c4c3C)c2Cl)C1 [Example 115, N-(2-chloro-3-((3,5-dimethyl-4-oxo-3,4-dihydroquinazolin-6-yl)oxy)-4-fluorophenyl)-3-(methoxymethyl)azetidine-1-sulfonamide] | 1.5 | 28 ×10⁻⁶ cm/s | 1.6 | 21 nM | 10 nM |
| Cc1c(Nc2c(F)ccc(NS(=O)(=O)N3CC(OC(F)F)C3)c2Cl)ccc2ncn(C)c(=O)c12 [Example 161, N-(2-chloro-3-((3,5-dimethyl-4-oxo-3,4-dihydroquinazolin-6-yl)amino)-4-fluorophenyl)-3-(difluoromethoxy)azetidine-1-sulfonamide] | 2.6 | 27 ×10⁻⁶ cm/s | 1.9 | 245 nM | 24 nM |
| COCC1(C)CN(S(=O)(=O)Nc2ccc(F)c(Nc3ccc4ncn(C)c(=O)c4c3C)c2Cl)C1 [Example 140, N-(2-chloro-3-((3,5-dimethyl-4-oxo-3,4-dihydroquinazolin-6-yl)amino)-4-fluorophenyl)-3-(methoxymethyl)-3-methylazetidine-1-sulfonamide trifluoroacetate] | 0.8 | 48 ×10⁻⁶ cm/s | 1.2 | 52 nM | 16 nM |
| Cc1c(Nc2c(F)ccc(NS(=O)(=O)N3CC4CC4(C)C3)c2Cl)ccc2ncn(C)c(=O)c12 (stereo not drawn) [Example 88] | 0.6 | 25 ×10⁻⁶ cm/s | 1.2 | 203 nM | 27 nM |
| Cn1cnc2ccc(Nc3c(F)ccc(NS(=O)(=O)N4CC5(CCC5)C4)c3Cl)c(F)c2c1=O [Example 159, N-(2-chloro-4-fluoro-3-((5-fluoro-3-methyl-4-oxo-3,4-dihydroquinazolin-6-yl)amino)phenyl)-2-azaspiro[3.3]heptane-2-sulfonamide trifluoroacetate] | 1.1 | 33 ×10⁻⁶ cm/s | 1.8 | 90 nM | 8 nM |
| Cn1cnc2ccc(Nc3c(F)ccc(NS(=O)(=O)N4CC5(CCC5)C4)c3Cl)c(Cl)c2c1=O [Example 158, N-(2-chloro-3-((5-chloro-3-methyl-4-oxo-3,4-dihydroquinazolin-6-yl)amino)-4-fluorophenyl)-2-azaspiro[3.3]heptane-2-sulfonamide trifluoroacetate] | 1.1 | 26 ×10⁻⁶ cm/s | 1.5 | 156 nM | 8 nM |
| COCC1(F)CN(S(=O)(=O)Nc2ccc(F)c(Nc3ccc4ncn(C)c(=O)c4c3C)c2Cl)C1 [Example 145, N-(2-chloro-3-((3,5-dimethyl-4-oxo-3,4-dihydroquinazolin-6-yl)amino)-4-fluorophenyl)-3-fluoro-3-(methoxymethyl)azetidine-1-sulfonamide trifluoroacetate] | 2.4 | 29 ×10⁻⁶ cm/s | 2.6 | 25 nM | 6 nM |
| CCOC1CN(S(=O)(=O)Nc2ccc(F)c(Nc3ccc4ncn(C)c(=O)c4c3F)c2Cl)C1 [Example 142, N-(2-chloro-4-fluoro-3-((5-fluoro-3-methyl-4-oxo-3,4-dihydroquinazolin-6-yl)amino)phenyl)-3-ethoxyazetidine-1-sulfonamide] | 2.5 | 21 ×10⁻⁶ cm/s | 3.2 | 20 nM | 24 nM |
